Like-named read-outs stand apart in the source and are kept apart here. Square brackets hold non-standard residues; d marks the D form. Peptide text beside a SMILES is read from it. * marks the point of attachment. Acryloyl(3-(3-pyridyl),E) = O=C(/C=C/c1cccnc1)*; Phe(3,4-Cl2) = N[C@@H](Cc1ccc(Cl)c(Cl)c1)C(=O)O; Oic = O=C(O)[C@@H]1C[C@@H]2CCCC[C@@H]2N1; dNMeR = CN[C@H](CCCNC(=N)N)C(=O)O; Tridecanoyl = CCCCCCCCCCCCC(=O)*; Cha = N[C@@H](CC1CCCCC1)C(=O)O; NMeD = CN[C@@H](CC(=O)O)C(=O)O; NMeDab = CN[C@@H](CCN)C(=O)O
Experiments:
[1] = biological target: T1, Escherichia coli SC (^EcSC) (Escherichia coli, UniProt P0A988); test: biochemical; format: binding
T1 construct: His tag (inferred from the pET15b vector and Ni-NTA purification) (N); made in house; host or cells: E. coli
T1 sequence (P0A988 whole entry): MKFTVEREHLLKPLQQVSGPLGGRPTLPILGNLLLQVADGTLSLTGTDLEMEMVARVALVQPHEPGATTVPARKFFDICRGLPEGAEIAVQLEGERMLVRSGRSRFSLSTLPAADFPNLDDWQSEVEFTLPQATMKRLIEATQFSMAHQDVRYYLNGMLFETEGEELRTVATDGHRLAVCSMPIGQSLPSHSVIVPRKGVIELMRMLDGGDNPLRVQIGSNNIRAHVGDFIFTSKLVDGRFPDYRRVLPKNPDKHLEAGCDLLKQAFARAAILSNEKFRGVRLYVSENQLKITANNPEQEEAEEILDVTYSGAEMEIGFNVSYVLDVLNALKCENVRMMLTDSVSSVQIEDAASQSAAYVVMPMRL
Procedure: The procedure has been described previously (Wolff, P.; Oliéric, V.; Briand, J. P.; Chaloin, O.; Dejaegere, A.; Dumas, P.; Ennifar, E.; Guichard, G.; Wagner, J.; Burnouf, D. Y., Structure-Based Design of Short Peptide Ligands Binding onto the E. coli Processivity Ring. J. Med. Chem. 2011, 54 (13), 4627-4637). Briefly, E.coli cells were transformed with plasmids pET15b containing the dnaN gene from E. coli and were grown in LB at 37° C. to OD 0.5, then induced by IPTG (0.1 mM) at 28° C. overnight. dnaN proteins fractions were first enriched on a Ni-NTA column, eluted with a histidine step (300 mM) and further purified on a Source Q column in buffer containing 20 mM Tris HCI pH 7.5, 0.5 mM EDTA and 10% (v/v) glycerol, using a gradient from 0 to 0.5 M NaCl. After a final ultracentrifugation (45 K, 1 h, 20° C.), soluble proteins were concentrated on a Centricon 30 K (Millipore) in the same buffer and stored at 4° C. in 2 M ammonium sulfate. Buffer exchange was performed on Centrikon 10 K at 4° C. before use and protein quality was assessed by DLS.
(§1) ITC experiments were performed using an iTC200 or a PEAQ-ITC instrument (Microcal Malvern Panalytical). Peptides (300 or 600 µM) were titrated at 25° C. by sequential injections (usually 2 µl each) into an SC solution (30 or 60 µM). Data were corrected for heat of injection by subtracting the signal of the titration of peptides into proteiN-free buffer solution (Hepes 10 mM pH 7.4, NaCl 0.15 M, EDTA 3 mM). Each titration was performed at least twice. Analyses of experimental data were performed following a classical treatment with the AFFINImeter software (https://www.affinimeter.com; S4S, Santiago de Compostela, Spain). In addition, kinetic information was obtained in some cases with kinITC as implemented in the software AFFINImeter.
All newly synthesized peptides were tested for their interaction with ^EcSC by ITC at 25° C. As a general rule, all thermodynamic profiles reveal an exothermic interaction, and a non-favorable entropic component. The resulting negative Gibb’s free energies characterize a spontaneous interaction. The analysis of raw data by the Affinimeter® software also gave access to kinetics rate constant of the interaction.

[2] = biological target: clamps from Acinetobacter baumannii (^AbSC); test: ITC of peptides with A. baumannii clamp; format: binding; conditions: ITC at 25° C.; means of three independant experiments, standard deviations in brackets; read-out: affinities (Kd in nM), A. baumannii
Procedure: as §1
(§2) Protein quality was assessed by DLS. The purification of clamps from other bacteria used the same procedure.
(§3) The bacterial sliding clamps present a highly conserved binding site among bacterial species. […] All these species belong to the ESKAPE group and are in the first priority bacteria list established by the World Health Organization for which new antibiotics are urgently needed.

[3] = biological target: T2, clamps from Pseudomonas aeruginosa (^PaSC) (Pseudomonas aeruginosa, UniProt Q9I7C4); test: ITC of peptides with P. aeruginosa clamp; format: binding
T2 construct: made in house
T2 sequence (Q9I7C4 whole entry): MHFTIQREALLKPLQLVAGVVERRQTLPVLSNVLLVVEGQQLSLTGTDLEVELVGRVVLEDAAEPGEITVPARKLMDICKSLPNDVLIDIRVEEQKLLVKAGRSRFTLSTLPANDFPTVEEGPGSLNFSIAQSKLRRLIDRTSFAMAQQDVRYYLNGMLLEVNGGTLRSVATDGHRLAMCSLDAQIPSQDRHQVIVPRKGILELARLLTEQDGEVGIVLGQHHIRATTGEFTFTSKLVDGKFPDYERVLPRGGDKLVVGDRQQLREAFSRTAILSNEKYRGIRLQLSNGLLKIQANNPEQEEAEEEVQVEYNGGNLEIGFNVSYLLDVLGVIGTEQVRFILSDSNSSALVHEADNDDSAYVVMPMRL
Procedure: as §1, §2, §3

^EcSC = ^EcSC (Escherichia coli, UniProt P0A988); conditions: SPR, J. Med. Chem. 2011; read-out: Kd previously determined by SPR; cited from earlier work
Sequence of ^EcSC (P0A988 whole entry): as the sequence (P0A988 whole entry) above

[4] = tested on: Stpaphylococcus aureus HG001; format: cell-based, S. aureus
Procedure: (§4) Antimicrobial activity of peptide 5d was assessed through the measurement of the Minimal Inhibition Concentration (MIC). MIC assays were performed in duplicate in 96-well microtiter plates on the basis of the protocol recommended by the Clinical and Laboratory Standards Institute. Laboratory strains of Escherichia coli D22, Bacillus subtilis 168 and Stpaphylococcus aureus HG001were cultivated on either LB-agar plates or liquid 1x Mueller Hinton broth. Briefly, a mix of 3-4 fresh (less than 36 hours) colonies grown on LB-agar plates were inoculated in 3 ml of MH broth and incubated for about 4 h at 37° C. under agitation. Dilution of these cultures to an OD600 nm of 0.002 was made in MH broth. Within a time laps not exceeding 30 min, 50 µl of this cell suspension was added to 50 µl of MH broth (containing or not serial dilutions of the peptide 5 d in MH broth) in wells of a 96-well round bottom microwell plate (Greiner; final cell density of about 5 × 10^5 cfu/ml). Plates were incubated at 37° C. for 18-20 hours. MIC was defined as the minimal antibiotic concentration that results in no visible growth of the strain in the micotiter plate well.

Escherichia coli D22 = test: MIC assay, E. coli; format: cell-based; conditions: MH broth, 37° C., 18-20 hours
Procedure: as §4

Bacillus subtilis 168 = format: cell-based
Procedure: as §4

[5] = Kd (nM), ITC at 298.15 K (25° C.)
[6] = affinities (Kd in nM), E.coli, ITC at 25° C., means of three independant experiments, standard deviations in brackets
[7] = affinities (Kd in nM), P. aeruginosa, ITC at 25° C., means of three independant experiments, standard deviations in brackets
[8] = ITC at 25° C., means of three independant experiments, standard deviations in brackets, read-out: affinities (Kd in nM), P. aeruginosa

Row | SMILES | Kd [1, 5] [nM] | Kd [1, 6] [nM] | kon ([1]; read-out: kon (M^-1 s^-1)) [M⁻¹ s⁻¹] | Kd [2] [nM] | Kd [3, 7] [nM] | Kd [3, 8] [nM] | other results
1 | CC(=O)N[C@@H](CCC(N)=O)C(=O)N[C@@H](CC1CCCCC1)C(=O)N[C@@H](CC(=O)O)C(=O)N[C@@H](CC(C)C)C(=O)N1[C@H](C(=O)N[C@@H](Cc2ccc(Cl)c(Cl)c2)C(=O)O)C[C@@H]2CCCC[C@@H]21 [P50] (Ac-Q[Cha]DL[Oic][Phe(3,4-Cl2)]-OH) | 39 | 39 | 60000 | 70 | 20 |  | ΔG (kcal mol^-1) ([1]; ITC at 25° C.): -10.1 (± 0.2) kcal mol^-1
2 | CC(=O)N[C@@H](CCC(N)=O)C(=O)N[C@@H](CC1CCCCC1)C(=O)N[C@@H](CC(=O)O)C(=O)N[C@@H](CC(C)C)C(=O)N[C@@H](Cc1ccccc1)C(=O)O [P1, Ac-Gln-Cha-Asp-Leu-Phe-OH, reference compound] (Ac-Q[Cha]DLF-OH) |  | 170 |  | 655 |  | 600 | ΔG ([1]; ITC at 25° C.): -9.2 kcal/mol; ΔG (kcal/mol) ([1]; ITC at 298.15 K (25° C.)): -9.2 (± 0.2) kcal/mol; kon ([1]; read-out: kon (M^-1.s^-1)): 40000 M⁻¹ s⁻¹; Kd (^EcSC): 170 nM
3 | CCCCCCCCCCCCC(=O)N(C)[C@H](CCCNC(=N)N)C(=O)N[C@@H](CCC(N)=O)C(=O)N[C@@H](CC1CCCCC1)C(=O)N(C)[C@@H](CCNC(C)=O)C(=O)N[C@@H](CC(C)C)C(=O)N[C@@H](Cc1ccc(Cl)c(Cl)c1)C(N)=O [Peptide 5d] (Tridecanoyl-[dNMeR]Q[Cha][NMeDab](Ac)L[Phe(3,4-Cl2)]-NH2) |  |  |  |  |  |  | MIC [4]: 4 to 8 µM; MIC ([4]; MH broth, 37° C., 18-20 hours): 4.6 to 9.2 µg/mL; MIC (µg/ml) (Escherichia coli D22): 2.3 to 4.6 µg/mL; MIC µM (Escherichia coli D22): 2 to 4 µM; MIC (Bacillus subtilis 168; 168): 4 µM; MIC (Bacillus subtilis 168; MH broth, 37° C., 18-20 hours): 4.6 µg/mL
4 | CC(C)C[C@H](NC(=O)[C@H](CC(=O)O)N(C)C(=O)[C@H](CC1CCCCC1)NC(=O)[C@H](CCC(N)=O)NC(=O)/C=C/c1cccnc1)C(=O)N[C@@H](Cc1ccc(Cl)c(Cl)c1)C(=O)O [P38] ({Acryloyl(3-(3-pyridyl),E)}-Q[Cha][NMeD]L[Phe(3,4-Cl2)]-OH) | 46 | 45 | 110000 |  |  | 120 | Kd ([3]; range over ^PaSC and ^AbSC, read-out: affinity for these clamps (^PaSC and ^AbSC)): 120 to 170 nM
5 | CC(=O)N[C@@H](CCC(N)=O)C(=O)N[C@@H](CC1CCCCC1)C(=O)N(C)[C@@H](CC(=O)O)C(=O)N[C@@H](CC(C)C)C(=O)N[C@@H](Cc1ccc(Cl)c(Cl)c1)C(=O)O [P35] (Ac-Q[Cha][NMeD]L[Phe(3,4-Cl2)]-OH) | 41 |  | 270000 |  | 140 |  | 

Reference: patent US20230312646A1, “ANTIBACTERIAL PEPTIDES” (priority 2020, published 2023)
